Test results taken from the NIST ThermoML archive (doi:10.1016/j.fluid.2007.07.039).

Experiment: xn = mol fraction of the nth substance listed
Conditions: Liquid, Taylor dispersion method, x1 = 0

Structure (SMILES) | binary diffusion coefficient (313.16 K, 15000 kPa) [m2/s] | binary diffusion coefficient (313.16 K, 20000 kPa) [m2/s] | binary diffusion coefficient (313.16 K, 25000 kPa) [m2/s] | binary diffusion coefficient (313.16 K, 30000 kPa) [m2/s] | binary diffusion coefficient (313.16 K, 35000 kPa) [m2/s] | binary diffusion coefficient (323.16 K, 15000 kPa) [m2/s] | binary diffusion coefficient (323.16 K, 20000 kPa) [m2/s] | binary diffusion coefficient (323.16 K, 25000 kPa) [m2/s] | binary diffusion coefficient (323.16 K, 30000 kPa) [m2/s] | binary diffusion coefficient (323.16 K, 35000 kPa) [m2/s] | binary diffusion coefficient (333.16 K, 15000 kPa) [m2/s] | binary diffusion coefficient (333.16 K, 20000 kPa) [m2/s] | binary diffusion coefficient (333.16 K, 25000 kPa) [m2/s] | binary diffusion coefficient (333.16 K, 30000 kPa) [m2/s] | binary diffusion coefficient (333.16 K, 35000 kPa) [m2/s]
C=CCc1ccccc1 [2-propenylbenzene] + O=C=O | 1.03e-08 | 9.11e-09 | 8.93e-09 | 8.29e-09 | 7.67e-09 | 1.23e-08 | 1.12e-08 | 1e-08 | 9.35e-09 | 9.01e-09 | 1.41e-08 | 1.22e-08 | 1.15e-08 | 1.05e-08 | 9.87e-09
C=Cc1cccc(C=C)c1 [1,3-diethenylbenzene] + O=C=O | 1.03e-08 | 9.44e-09 | 8.69e-09 | 8.07e-09 | 7.69e-09 | 1.28e-08 | 1.06e-08 | 9.71e-09 | 8.94e-09 | 8.54e-09 | 1.51e-08 | 1.21e-08 | 1.11e-08 | 9.95e-09 | 9.47e-09
COc1ccccc1Br [1-bromo-2-methoxybenzene] + O=C=O | 9.46e-09 | 8.66e-09 | 7.92e-09 | 7.48e-09 | 7.15e-09 | 1.15e-08 | 1.01e-08 | 9.08e-09 | 8.52e-09 | 7.98e-09 | 1.28e-08 | 1.19e-08 | 1.06e-08 | 9.45e-09 | 8.98e-09
COc1ccccc1F [2-fluoroanisole] + O=C=O | 1.02e-08 | 9.27e-09 | 8.69e-09 | 8.01e-09 | 7.68e-09 | 1.25e-08 | 1.05e-08 | 9.89e-09 | 9.14e-09 | 8.65e-09 | 1.43e-08 | 1.23e-08 | 1.1e-08 | 1.03e-08 | 9.67e-09
